Data: patent US7767659B2, “Synthesis of naturally occurring ecteinascidins and related compounds” (Pharma Mar, S.A., priority 2002, dated 2010)

Legend:
HeLa-APL = experiment: Inhibition of cells growth by colorimetric assay (SRB); conditions: Homo sapiens, 48 h; for GI50: read-out: HELA-APL GI50; for CC50: read-out: HELA-APL LC50; for IC (TGI): read-out: HELA-APL TGI
Summary of the method: (§1)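 Colorimetric SRB read (490 nm) on triplicate wells after 48 h at 37 °C, 5% CO2. Dose range 10 to 10^−8 μg/ml; 5×10^3 cells/well pre-attached 18 h.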

SK-MEL-28 = experiment: as above; conditions: Homo sapiens, SK-MEL-28, 48 h; for GI50: read-out: MEL-28 GI50; for CC50: read-out: MEL-28 LC50; for IC (TGI): read-out: MEL-28 TGI
Summary of the method: as §1

LoVo-Dox = experiment: as above; conditions: Homo sapiens, 48 h; for GI50: read-out: LOVO-DOX GI50; for CC50: read-out: LOVO-DOX LC50; for IC (TGI): read-out: LOVO-DOX TGI
Summary of the method: as §1

SK-BR-3 = experiment: as above; conditions: Homo sapiens, SK-BR-3, 48 h; for GI50: read-out: SK-BR3 GI50; for CC50: read-out: SK-BR3 LC50; for IC (TGI): read-out: SK-BR3 TGI
Summary of the method: as §1

IGROV-ET = experiment: as above; conditions: Homo sapiens, 48 h; for GI50: read-out: IGROV-ET GI50; for CC50: read-out: IGROV-ET LC50; for IC (TGI): read-out: IGROV-ET TGI
Summary of the method: as §1

K-562 = experiment: as above; conditions: Homo sapiens, K562, 48 h; for GI50: read-out: K562 GI50; for CC50: read-out: K562 LC50; for IC (TGI): read-out: K562 TGI
Summary of the method: as §1

LNCaP = experiment: as above; conditions: Homo sapiens, LNCaP, 48 h; for GI50: read-out: LNCAP GI50; for CC50: read-out: LNCAP LC50; for IC (TGI): read-out: LNCAP TGI
Summary of the method: as §1

IGROV-1 = experiment: as above; conditions: Homo sapiens, IGROV-1, 48 h; for GI50: read-out: IGROV GI50; for CC50: read-out: IGROV LC50; for IC (TGI): read-out: IGROV TGI
Summary of the method: as §1

PANC-1 = experiment: as above; conditions: Homo sapiens, PANC-1, 48 h; for GI50: read-out: PANC-1 GI50; for CC50: read-out: PANC-1 LC50; for IC (TGI): read-out: PANC-1 TGI
Summary of the method: as §1

DU-145 = experiment: as above; conditions: Homo sapiens, DU-145, 48 h; for GI50: read-out: DU145 GI50; for CC50: read-out: DU145 LC50; for IC (TGI): read-out: DU145 TGI
Summary of the method: as §1

HeLa = experiment: as above; conditions: Homo sapiens, HeLa, 48 h; for GI50: read-out: HELA GI50; for CC50: read-out: HELA LC50; for IC (TGI): read-out: HELA TGI
Summary of the method: as §1

A-549 = experiment: cells; conditions: Homo sapiens, A549, 48 h; for GI50: read-out: A549 GI50; for CC50: read-out: A549 LC50; for IC (TGI): read-out: A549 TGI
Summary of the method: as §1

HT-29 = experiment: cells; conditions: Homo sapiens, HT-29, 48 h; for GI50: read-out: HT29 GI50; for CC50: read-out: HT29 LC50; for IC (TGI): read-out: HT29 TGI
Summary of the method: as §1

LoVo = experiment: cells; conditions: Homo sapiens, LoVo, 48 h; for GI50: read-out: LOVO GI50; for CC50: read-out: LOVO LC50; for IC (TGI): read-out: LOVO TGI
Summary of the method: as §1

COc1c(C)cc2c(c1O)[C@H]1N[C@@H](C2)[C@H](C#N)N2C1[C@@H]1SC[C@]3(NCCc4c3[nH]c3ccc(C)cc43)C(=O)OC[C@H]2c2c3c(c(C)c(OC(C)=O)c21)OCO3 (stereo partly drawn) [compound 62]
GI50 (HeLa-APL): 2.3 nM
CC50 (HeLa-APL): 10.3 nM
IC (TGI) (HeLa-APL): 4.88 nM
GI50 (SK-MEL-28): 2.46 nM
CC50 (SK-MEL-28): 9.78 nM
IC (TGI) (SK-MEL-28): 4.92 nM
GI50 (LoVo-Dox): 136 nM
CC50 (LoVo-Dox): 13100 nM
IC (TGI) (LoVo-Dox): 558 nM
GI50 (SK-BR-3): 1.01 nM
CC50 (SK-BR-3): 103 nM
IC (TGI) (SK-BR-3): 4.74 nM
GI50 (IGROV-ET): 26.6 nM
CC50 (IGROV-ET): 2920 nM
IC (TGI) (IGROV-ET): 69.5 nM
GI50 (K-562): 1.94 nM
CC50 (K-562): 6020 nM
IC (TGI) (K-562): 11 nM
GI50 (LNCaP): 3.01 nM
CC50 (LNCaP): 8.4 nM
IC (TGI) (LNCaP): 5.03 nM
GI50 (IGROV-1): 2.59 nM
CC50 (IGROV-1): 3900 nM
IC (TGI) (IGROV-1): 6.55 nM
GI50 (PANC-1): 3.86 nM
CC50 (PANC-1): 4750 nM
IC (TGI) (PANC-1): 13.5 nM
GI50 (DU-145): 3.3 nM
CC50 (DU-145): 3590 nM
IC (TGI) (DU-145): 10.4 nM
GI50 (HeLa): 2.37 nM
CC50 (HeLa): 11 nM
IC (TGI) (HeLa): 5.11 nM
GI50 (A-549): 4.56 nM
CC50 (A-549): 334 nM
IC (TGI) (A-549): 16.5 nM
GI50 (HT-29): 4.03 nM
CC50 (HT-29): 12500 nM
IC (TGI) (HT-29): 283 nM
GI50 (LoVo): 5.03 nM
CC50 (LoVo): 1540 nM
IC (TGI) (LoVo): 17.9 nM

COc1cc2c(cc1O)CCN[C@]21CS[C@@H]2c3c(OC(=O)/C=C/c4ccccc4)c(C)c4c(c3[C@H](COC1=O)N1C2[C@@H]2N[C@@H](Cc3cc(C)c(OC)c(O)c32)[C@@H]1O)OCO4 (stereo partly drawn) [compound 53]
GI50 (HeLa-APL): 2.99 nM
CC50 (HeLa-APL): 38.9 nM
IC (TGI) (HeLa-APL): 12.2 nM
GI50 (SK-MEL-28): 2.21 nM
CC50 (SK-MEL-28): 7.2 nM
IC (TGI) (SK-MEL-28): 4 nM
GI50 (LoVo-Dox): 57.9 nM
CC50 (LoVo-Dox): 5240 nM
IC (TGI) (LoVo-Dox): 1450 nM
GI50 (SK-BR-3): 2.95 nM
CC50 (SK-BR-3): 1820 nM
IC (TGI) (SK-BR-3): 29.9 nM
GI50 (IGROV-ET): 10.2 nM
CC50 (IGROV-ET): 6450 nM
IC (TGI) (IGROV-ET): 1400 nM
GI50 (K-562): 1.54 nM
CC50 (K-562): 583 nM
IC (TGI) (K-562): 13 nM
GI50 (LNCaP): 1.87 nM
CC50 (LNCaP): 8.33 nM
IC (TGI) (LNCaP): 3.95 nM
GI50 (IGROV-1): 2.74 nM
CC50 (IGROV-1): 2740 nM
IC (TGI) (IGROV-1): 6.72 nM
GI50 (PANC-1): 3.36 nM
CC50 (PANC-1): 1440 nM
IC (TGI) (PANC-1): 10.1 nM
GI50 (DU-145): 3.58 nM
CC50 (DU-145): 3040 nM
IC (TGI) (DU-145): 24.3 nM
GI50 (HeLa): 3.12 nM
CC50 (HeLa): 83.9 nM
IC (TGI) (HeLa): 7.55 nM
GI50 (A-549): 3.34 nM
CC50 (A-549): 2210 nM
IC (TGI) (A-549): 8.17 nM
GI50 (HT-29): 4.33 nM
CC50 (HT-29): 2740 nM
IC (TGI) (HT-29): 18.3 nM
GI50 (LoVo): 3.82 nM
CC50 (LoVo): 2940 nM
IC (TGI) (LoVo): 8.54 nM
